Data as given in article PMC5397431, “Multigeneration toxicity of imidacloprid and thiacloprid to Folsomia candida” (Ecotoxicology (London, England), 2017).
Where “and” joins values, the source holds several entries; their conditions need not be identical. Equal entries are not always repeated. Where two headings read alike, the source gives them in different places.

What was measured:
[1] = Chemical analysis of concentrations in test soil (LC-MS) and degradation half-life (DT50); type: physicochemical; details: for concentration, % of the nominal concentration: after 63 days
Description: Soil samples for chemical analysis of imidacloprid and thiacloprid in the test soil were taken at the start of the exposure of each new generation.
The analytical method to determine actual imidacloprid and thiacloprid concentrations in the test soils followed the principles of the QuEChERS extraction method modified from Anastasiades et al. ([2003]) and Payá et al. ([2007]). Briefly, the procedure used was as follows: approx. 1 g moist soil was taken for low concentration treatments (<1 mg/kg), and 50 µL internal standard (Imidacloprid-d4 and Thiacloprid-d4, 250 µg/L) was added. The sample was shaken for 20 min at 250 rpm with 2 mL methanol and centrifuged for 3 min at 1500 rpm. The methanol phase was passed through a granular Na2SO4 column, evaporated till dryness and the residue taken up in 3 mL acetonitrile. For high concentration samples (>1 mg/kg), the soil was first shaken with methanol and centrifuged. Subsequently an aliquot of 100 µL was taken and together with 50 µL internal standard (Imidacloprid-d4 and Thiacloprid-d4, 250 µg/L) added to 1 mL methanol, passed through a granular Na2SO4 column, evaporated to dryness and taken up in 3 mL acetonitrile. For clean-up, the acetonitrile extract was added to a tube filled with Supel QuE (C18 150 mg, PSA 150 mg, MgSO4 900 mg, Sigma Aldrich), shaken by hand for 2 min and centrifuged for 3 min at 3000 rpm. The supernatant was evaporated till dryness under gentle nitrogen stream and the residue taken up in 200 µL of a water-methanol (9/1) mixture.
Extracts were analyzed using LC-MS and quantified by isotope dilution (imidacloprid-d4 and thiacloprid-d4). The neonicotinoids were separated on a 100 × 2.1 mm, 2.6 µm Kinetex XB-C18 column (Phenomenex), applying a gradient of 5 mM ammonium formate pH 4 buffer and methanol, at a flow rate of 0.3 mL/min. The LC system (Agilent 1200 series) was coupled to a 6410 triple quadrupole MS (Agilent) using electrospray ionization (ESI) with data acquisition in positive ion mode. The transitions for imidacloprid were 256.1 > 175/209 (quantifier/qualifier) and for imidacloprid-d4 260 > 179. For thiacloprid the transitions were253.1 > 126/90 (quantifier/qualifier) with 257 > 126 for thiacloprid-d4.
Using data on the imidacloprid and thiacloprid concentrations measured at different times after spiking the soil in the multigeneration test, half-life (DT50) values were estimated assuming first order degradation kinetics. The equation C = C0 * e^−k*t was fitted to the data, with C = concentration at time t in days, C0 is concentration at t = 0 and k = degradation rate constant (day^−1). DT50 was derived as ln(2) / k.

[2] = cited from earlier work
Folsomia candida [3] = details: cited from earlier work
Folsomia candida [4] = assay: Multigeneration toxicity test (survival and reproduction) with springtails in spiked LUFA 2.2 soil; type: in vivo; details: for EC10 / EC50: number of juveniles
Description: F. candida were taken from cultures at the Department of Ecological Science at the Vrije Universiteit in Amsterdam. To obtain age-synchronized animals, adults from the culture were separated in boxes with a layer of plaster of Paris over a period of 2–3 days to lay eggs, after which they were removed. After removal of the adults, the eggs were incubated under a 12 h light/12 h dark regime at 20 °C and 75% relative humidity, where they hatched and grew. Juveniles of 10–12 days old were used for testing.
All tests were performed in the natural standard LUFA 2.2 (Lufa Speyer, Germany), a loamy sand with 1.59 ± 0.13% organic carbon, pH in 0.01 M CaCl2 of 5.4 ± 0.2, and water holding capacity (WHC) of 43.5 ± 2.8% of its dry weight.
Pure imidacloprid and thiacloprid (purity 98%) were kindly provided by Bayer CropScience, Monheim, Germany. Test concentrations of imidacloprid and thiacloprid were based on the results of earlier tests. Stock solution of both compounds in water were prepared, to spike the chemicals into the soil and at the same time bringing moisture content to the desired level of 50% of the WHC. To ensure complete thiacloprid dissolution, a small amount of acetone was added to the stock solution. This stock solution was used to spike soil with the highest test concentration and further diluted for spiking soil with the lower concentrations tested. Considering the low amount of acetone needed to make thiacloprid completely dissolve, no attempts were made to correct for that by adding acetone to the lower concentrations and control in the multigeneration test. All soils were thoroughly mixed to achieve a homogenous distribution of the test chemicals in the test soil.
Multigeneration tests started with a control, […] imidacloprid (0, 0.001, 0.003, 0.01, 0.03, 0.1, 0.3, 1.0 mg/kg dry soil) and 9 thiacloprid concentrations (0, 0.0015, 0.0045, 0.014, 0.041, 0.11, 0.31, 1.1, 3.3, 10.0 mg/kg dry soil). Batches of soil sufficient to perform three toxicity tests were prepared. After filling test jars for the parent generation exposure, the remaining spiked soil was stored in glass jars in a climate room at 20 °C for subsequent exposure of the next two generations. Moisture content of the spiked soil was checked regularly by weighing the jars, and replenished by adding deionized water if needed.
After 28 days (35 days for the second generation), the juveniles from the same exposure concentration were pooled in the same container with a moist plaster of Paris bottom and incubated overnight before being transferred to the next cycle of exposure. This experiment spanned a total of three continuous generations (referred to as F0, F1, and F2).

Folsomia candida [5] = details: 28 days, LUFA 2.2 soil
Description: Tests were performed in 100 ml glass jars, containing c. 30 g moist soil, using five replicate test jars for each exposure concentration. Each jar received ten 10–12 day old animals from age-synchronized cultures, after checking their health under a binocular microscope. The animals were fed with a few grains of dry baker’s yeast (Instant yeast from Algist Bruggeman N.V, Ghent, Belgium) weekly, in small amounts to avoid fungal growth. All incubations took place at 20 ± 2 °C at 75% Relative Humidity and a photoperiod of 16:8 dark: light hours. Test jars were weighed at the start, so that water loss could be monitored on a weekly basis and replenished with deionized water if needed. After exposure, all animals were extracted by flotation and pictures were taken to enable counting the number of surviving adults and juveniles produced using the software package ImageJ with a Cell Counter extension.
If no proper fit was obtained, LC50 values were calculated using the trimmed Spearman-Karber method (Hamilton et al. [1977]/78). No observed effect concentrations (NOEC) were determined applying a one-way ANOVA followed by a one-sided Dunnett’s post hoc test at a significance level of p < 0.05. All statistical analysis, except for the Trimmed Spearman Karber method, were run in SPSS 23.

[6] = 28-day exposure, Lufa 2.2, ~3.0% OM, pure, ref De Lima e Silva et al. (submitted)
[7] = F0 generation, 28 days, LUFA 2.2 soil, nominal concentrations
[8] = F1 and F2 generations, 3.3 mg/kg dry soil
[9] = F1 generation, 35 days, soil spiked at start of F0, nominal concentrations
[10] = F2 generation, 28 days, soil spiked at start of F0, nominal concentrations
[11] = F2 generation, 28 days, soil spiked at start of F0, nominal concentrations, listed as thiacloprid
[12] = number of juveniles, with 95% confidence interval

N#C/N=C1\SCCN1Cc1ccc(Cl)nc1 [Thiacloprid, thiacloprid]
half-life ([1]; LUFA 2.2 soil (spiked natural loamy sand), pH 5.4, LUFA 2.2 soil, 20 °C, first order kinetics, read-out: DT50 (half-life) for degradation in test soil): 240 to 288 h | concentration, % of nominal ([1]; LUFA 2.2 soil, after 28 days, 1.1 and 3.3 mg/kg dry soil): 91.2–101% and 90–100% | concentration, % of the nominal values ([1]; LUFA 2.2 soil, after 63 days of incubation, all concentrations): 7.6–22.0% | concentration, % of the nominal concentration ([1]; LUFA 2.2 soil, 0.0137 mg/kg): 22.0% | concentration, % of the nominal concentration ([1]; LUFA 2.2 soil, 0.113 mg/kg): 19.8% | concentration measured in soil ([1]; T=28, nominal 1.11, mean ± SD (n=3)): 1.1±0.35 mg/kg dry soil | concentration measured in soil ([1]; T=28, nominal 3.33, mean ± SD (n=3)): 3.0±0.42 mg/kg dry soil | concentration measured in soil ([1]; T=28, nominal 10, mean ± SD (n=3)): 5.7±0.27 mg/kg dry soil | concentration measured in soil ([1]; T=63 d, nominal 0.014, mean ± SD (n=3)): 0.003±0.0002 mg/kg dry soil | concentration measured in soil ([1]; T=63 d, nominal 0.113, mean ± SD (n=3)): 0.022±0.00044 mg/kg dry soil | concentration measured in soil ([1]; T=63 d, nominal 1.11, mean ± SD (n=3)): 0.12±0.0054 mg/kg dry soil | concentration measured in soil ([1]; T=63 d, nominal 3.33, mean ± SD (n=3)): 0.26±0.0038 mg/kg dry soil | concentration measured in soil ([1]; T=63 d, nominal 10, mean ± SD (n=3)): 0.76±0.015 mg/kg dry soil | field-based half-lives ([2]; field, ref European Commission (2004)): 9 to 27 days | half-life in soil ([2]; laboratory tests, ref Goulson (2013), Bonmatin et al. (2015)): 81.6 to 1780 h | factor less persistent in soil than imidacloprid ([2]; ref Goulson (2013), Bonmatin et al. (2015)): 10 | EC50 (Folsomia candida [3]; [6]): 1.7-2.4 mg/kg dry soil | LC50 (Folsomia candida [3]; [6]): 4.3-4.9 mg/kg dry soil | effect on reproduction (Folsomia candida [4]; F0 generation, 3.3 mg/kg dry soil): significantly reduced | NOEC (Folsomia candida [4]; [7]): 0.11 mg/kg dry soil | LC50 (Folsomia candida [4]; F0 generation, 28 days, adult survival, LUFA 2.2 soil, nominal concentrations): 9.0 mg/kg dry soil | EC10 (Folsomia candida [4]; [7]): 0.23 mg/kg dry soil | EC50 (Folsomia candida [4]; [7]): 1.5 mg/kg dry soil | juveniles produced, on average (Folsomia candida [4]; F0 generation, highest concentration tested 10 mg/kg dry soil): 3 per jar | effects on juvenile numbers (Folsomia candida [4]; [8]): no effects | springtail reproduction affected (Folsomia candida [4]; [8]): less than 50% | EC50 (Folsomia candida [4]; [9]): > 3.33 mg/kg dry soil and > 3.3 mg/kg dry soil | LC50 (Folsomia candida [4]; [9]): > 3.33 mg/kg dry soil and > 3.3 mg/kg dry soil | NOEC (Folsomia candida [4]; [9]): ≥ 3.3 mg/kg dry soil | EC10 (Folsomia candida [4]; [10]): >3.3 mg/kg dry soil | EC50 (Folsomia candida [4]; [10]): >3.3 mg/kg dry soil | EC50 (Folsomia candida [4]; [11]): > 3.33 mg/kg dry soil and > 3.3 mg/kg dry soil | LC50 (Folsomia candida [4]; [10]): >3.3 mg/kg dry soil | LC50 (Folsomia candida [4]; [11]): > 3.33 mg/kg dry soil and > 3.3 mg/kg dry soil | NOEC (Folsomia candida [4]; [11]): 1.1 mg/kg dry soil | LC50, range over generations (Folsomia candida [4]; range over the three generations, Lufa 2.2, pure compound, this study): >3.33-9.0 mg/kg dry soil

OB(O)O [Boric acid, boric acid]
EC50 (Folsomia candida [3]; OECD artificial soil, value mentioned in the test guideline, ref OECD (2009)): 100 mg/kg dry soil | NOEC (Folsomia candida [5]): 20 mg/kg dry soil | EC10 (Folsomia candida [5]; [12]): 29 (25–33) mg/kg dry soil | EC50 (Folsomia candida [5]; [12]): 51 (47–54) mg/kg dry soil
